According to patent publication US6525041B1, “Manganese or iron complexes of nitrogen-containing macrocyclic ligands effective as catalysts for dismutating superoxide” (Pharmacia Corporation, priority 1995, dated 2003):

Experiment: Stopped-flow kinetic analysis of catalytic dismutation of superoxide
Assay type: biochemical
Settings: pH=8.1 and 21° C., 80 mM Hepes buffer, absorbance at 245 nm
Excerpt: Stopped-flow kinetic analysis is an accurate and direct method for quantitatively monitoring the decay rates of superoxide in water. The stopped-flow kinetic analysis is suitable for screening compounds for SOD activity and catalytic activity of the compounds or complexes of the present invention for dismutating superoxide, as shown by stopped-flow analysis, correlate to treating the above disease states and disorders. […]
Water for buffer solutions was delivered from an in-house deionized water system to a Barnstead Nanopure Ultrapure Series 550 water system and then double distilled, first from alkaline potassium permanganate and then from a dilute EDTA solution. […] This system produces deoxygenated water that can be measured to have a conductivity of less than 2.0 nanomhos/cm^2.
The stopped-flow spectrometer system was designed and manufactured by Kinetic Instruments Inc. (Ann Arbor, Mich.) and was interfaced to a MAC IICX personal computer. […] Since the published extinction coefficient of superoxide in H2O at 245 nm is ˜2250 M^−1 cm^−1 (1), an initial absorbance value of approximately 0.3-0.5 would be expected for a 2-cm path length cell, and this was observed experimentally. […]

Compound: OCCCC1NCCNCCNCCNCCNC1CCCO.[Cl][Mn][Cl] (stereo not drawn) [Example 1, [Manqanese(II)dichloro (trans-2,3-bis(3-hydroxypropyl)-1,4,7,10,13-pentaazacyclopentadecane)]]
- catalytic rate constant for dismutation of superoxide (kcal): 1.8e+07 M⁻¹ s⁻¹
